Test results as given in ChEMBL document CHEMBL1909046, “DrugMatrix in vitro pharmacology data”.

Legend:
[1] = molecular target: T1, 5-hydroxytryptamine receptor 2C (Homo sapiens, UniProt P28335); experiment: DRUGMATRIX: Serotonin (5-Hydroxytryptamine) 5-HT2C radioligand binding (ligand: [3H] Mesulergine); assay type: cell membranes, CHO-K1, Membrane; conditions: Not Active = under 50% inhibition at 10 µM
T1 sequence (P28335 whole entry): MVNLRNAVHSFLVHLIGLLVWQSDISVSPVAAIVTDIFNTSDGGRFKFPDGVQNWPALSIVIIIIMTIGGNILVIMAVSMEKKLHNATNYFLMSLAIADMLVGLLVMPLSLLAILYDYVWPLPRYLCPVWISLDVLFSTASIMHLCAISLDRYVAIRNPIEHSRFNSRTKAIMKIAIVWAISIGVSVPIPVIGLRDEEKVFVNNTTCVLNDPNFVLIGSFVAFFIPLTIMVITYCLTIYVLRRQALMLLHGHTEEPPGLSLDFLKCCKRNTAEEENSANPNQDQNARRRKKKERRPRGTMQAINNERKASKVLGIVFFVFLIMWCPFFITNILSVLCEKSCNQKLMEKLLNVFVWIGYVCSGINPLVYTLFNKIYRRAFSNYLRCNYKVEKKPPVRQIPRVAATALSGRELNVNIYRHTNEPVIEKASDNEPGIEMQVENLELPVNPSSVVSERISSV

[2] = DRUGMATRIX: Glutamate, Kainate radioligand binding (ligand: [3H] Kainic acid); assay type: cell membranes, Rattus norvegicus, Wistar, Brain, Membrane; conditions: Not Active = under 50% inhibition at 10 µM
[3] = molecular target: T2, 3-hydroxy-3-methylglutaryl-coenzyme A reductase (Homo sapiens, UniProt P04035); parameters: species or system Escherichia coli;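 also: enzyme inhibition assay of HMG-CoA reductase using radiolabeled [14C]HMG-CoA as substrate; in other assays of this panel Not Active means under 50% inhibition at 10 µM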
T2 sequence (P04035 whole entry): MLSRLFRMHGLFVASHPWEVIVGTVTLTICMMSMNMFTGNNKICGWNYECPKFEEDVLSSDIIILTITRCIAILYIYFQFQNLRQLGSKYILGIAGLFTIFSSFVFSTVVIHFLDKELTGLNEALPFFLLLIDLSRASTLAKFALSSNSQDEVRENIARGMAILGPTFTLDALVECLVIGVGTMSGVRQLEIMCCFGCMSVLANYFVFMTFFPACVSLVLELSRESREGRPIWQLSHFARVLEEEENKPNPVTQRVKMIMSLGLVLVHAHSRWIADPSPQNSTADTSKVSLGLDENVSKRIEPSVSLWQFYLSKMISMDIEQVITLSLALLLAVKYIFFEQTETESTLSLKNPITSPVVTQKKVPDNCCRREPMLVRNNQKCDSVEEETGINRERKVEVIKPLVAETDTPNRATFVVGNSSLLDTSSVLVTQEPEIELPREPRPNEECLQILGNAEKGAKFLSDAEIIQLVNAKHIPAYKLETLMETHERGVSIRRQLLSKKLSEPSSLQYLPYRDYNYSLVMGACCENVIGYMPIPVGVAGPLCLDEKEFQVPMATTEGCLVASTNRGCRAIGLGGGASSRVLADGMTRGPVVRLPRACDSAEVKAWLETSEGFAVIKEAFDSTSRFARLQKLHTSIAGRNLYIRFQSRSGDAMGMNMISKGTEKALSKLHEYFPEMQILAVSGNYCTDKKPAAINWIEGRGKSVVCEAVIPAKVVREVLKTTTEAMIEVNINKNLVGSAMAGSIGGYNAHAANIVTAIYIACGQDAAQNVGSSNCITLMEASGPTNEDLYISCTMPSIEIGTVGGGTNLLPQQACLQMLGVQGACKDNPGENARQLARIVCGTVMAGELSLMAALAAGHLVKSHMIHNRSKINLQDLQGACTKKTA

[4] = molecular target: Melanocortin receptor 3 (Homo sapiens, UniProt P41968); assay type: cell membranes, HEK293, Membrane; conditions: hek293; also: in other assays of this panel Not Active means under 50% inhibition at 10 µM
Chain of Melanocortin receptor 3 (P41968 whole entry): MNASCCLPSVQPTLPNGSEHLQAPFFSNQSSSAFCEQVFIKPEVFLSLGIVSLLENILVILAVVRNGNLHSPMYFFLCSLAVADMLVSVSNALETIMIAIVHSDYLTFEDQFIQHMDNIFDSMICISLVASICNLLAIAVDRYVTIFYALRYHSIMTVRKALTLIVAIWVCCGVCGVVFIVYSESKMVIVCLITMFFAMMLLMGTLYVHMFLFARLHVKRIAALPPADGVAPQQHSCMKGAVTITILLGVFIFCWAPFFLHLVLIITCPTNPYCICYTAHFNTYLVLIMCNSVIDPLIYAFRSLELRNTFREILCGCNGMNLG

[5] = molecular target: T3, Angiotensin-converting enzyme (Oryctolagus cuniculus, UniProt P12822); assay type: tissue-based, Lung;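 also: enzymatic inhibition of angiotensin-converting enzyme measured with FAPGG as the substrate; in other assays of this panel Not Active means under 50% inhibition at 10 µM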
T3 sequence (P12822 whole entry): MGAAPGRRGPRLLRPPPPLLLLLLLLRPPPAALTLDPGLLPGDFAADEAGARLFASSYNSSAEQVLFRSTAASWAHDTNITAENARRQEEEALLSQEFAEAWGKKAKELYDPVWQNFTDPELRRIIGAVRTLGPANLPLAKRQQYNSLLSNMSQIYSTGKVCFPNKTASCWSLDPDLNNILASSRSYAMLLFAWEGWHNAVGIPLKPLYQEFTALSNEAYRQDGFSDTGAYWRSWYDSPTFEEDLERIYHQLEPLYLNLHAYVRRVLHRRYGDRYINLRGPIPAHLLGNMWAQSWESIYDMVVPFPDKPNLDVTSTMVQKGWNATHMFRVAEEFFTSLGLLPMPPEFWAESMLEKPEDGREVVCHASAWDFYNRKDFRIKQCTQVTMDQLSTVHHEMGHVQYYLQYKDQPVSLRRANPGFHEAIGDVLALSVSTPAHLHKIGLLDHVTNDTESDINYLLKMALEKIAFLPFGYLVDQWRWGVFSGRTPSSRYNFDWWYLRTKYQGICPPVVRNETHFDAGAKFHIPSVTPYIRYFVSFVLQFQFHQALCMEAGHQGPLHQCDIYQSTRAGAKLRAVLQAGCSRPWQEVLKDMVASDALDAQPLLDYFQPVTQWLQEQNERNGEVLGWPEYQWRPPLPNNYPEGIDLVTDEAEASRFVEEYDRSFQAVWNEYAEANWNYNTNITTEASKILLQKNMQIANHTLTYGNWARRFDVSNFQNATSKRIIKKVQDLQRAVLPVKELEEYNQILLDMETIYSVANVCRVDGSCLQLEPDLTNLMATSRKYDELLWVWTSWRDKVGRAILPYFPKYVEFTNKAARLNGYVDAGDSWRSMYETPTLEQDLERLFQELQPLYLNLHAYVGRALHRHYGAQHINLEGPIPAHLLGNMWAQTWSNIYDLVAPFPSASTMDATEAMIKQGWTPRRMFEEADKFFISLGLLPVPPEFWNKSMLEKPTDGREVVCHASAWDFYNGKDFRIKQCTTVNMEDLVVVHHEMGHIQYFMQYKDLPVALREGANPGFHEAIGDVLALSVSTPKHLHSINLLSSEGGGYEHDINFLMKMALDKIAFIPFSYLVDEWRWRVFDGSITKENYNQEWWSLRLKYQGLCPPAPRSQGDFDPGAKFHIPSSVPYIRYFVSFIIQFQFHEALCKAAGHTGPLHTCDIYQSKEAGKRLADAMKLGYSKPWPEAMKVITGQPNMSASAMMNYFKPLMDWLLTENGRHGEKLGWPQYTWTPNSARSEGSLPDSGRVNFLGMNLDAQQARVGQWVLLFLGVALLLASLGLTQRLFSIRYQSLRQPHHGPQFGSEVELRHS

[6] = molecular target: Mitogen-activated protein kinase 3 (Homo sapiens, UniProt P27361); experiment: DRUGMATRIX: Protein Serine/Threonine Kinase, ERK1 enzyme inhibition (substrate: Myelin Basic Protein); parameters: species or system Escherichia coli; conditions: Not Active = under 50% inhibition at 10 µM
Chain of Mitogen-activated protein kinase 3 (P27361 whole entry): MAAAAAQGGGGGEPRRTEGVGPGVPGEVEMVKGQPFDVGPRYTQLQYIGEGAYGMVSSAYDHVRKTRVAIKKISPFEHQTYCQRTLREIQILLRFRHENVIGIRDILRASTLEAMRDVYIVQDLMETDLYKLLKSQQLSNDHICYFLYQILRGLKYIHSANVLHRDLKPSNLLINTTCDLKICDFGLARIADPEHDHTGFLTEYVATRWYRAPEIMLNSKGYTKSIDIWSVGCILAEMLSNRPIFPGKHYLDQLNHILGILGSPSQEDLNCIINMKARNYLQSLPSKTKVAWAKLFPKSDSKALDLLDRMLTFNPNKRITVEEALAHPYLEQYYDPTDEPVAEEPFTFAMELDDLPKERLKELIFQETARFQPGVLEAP

[7] = molecular target: Mitogen-activated protein kinase 14 (Homo sapiens, UniProt Q16539); parameters: species or system Escherichia coli;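 also: inhibition of p38alpha enzyme activity in a biochemical kinase assay, with myelin basic protein serving as substrate; in other assays of this panel Not Active means under 50% inhibition at 10 µM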
Chain of Mitogen-activated protein kinase 14 (Q16539 whole entry): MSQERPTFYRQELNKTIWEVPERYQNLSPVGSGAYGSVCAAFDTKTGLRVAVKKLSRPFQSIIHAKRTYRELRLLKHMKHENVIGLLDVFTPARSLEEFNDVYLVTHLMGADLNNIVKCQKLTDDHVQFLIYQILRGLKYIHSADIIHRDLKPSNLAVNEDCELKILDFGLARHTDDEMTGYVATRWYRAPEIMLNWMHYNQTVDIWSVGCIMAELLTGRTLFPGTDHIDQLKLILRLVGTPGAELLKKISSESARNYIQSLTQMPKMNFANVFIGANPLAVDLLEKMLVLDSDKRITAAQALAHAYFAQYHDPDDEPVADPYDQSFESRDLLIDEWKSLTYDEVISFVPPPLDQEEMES

Compound | IC50 ([1]; cho-k1) | IC50 [2] | Ki [2] | IC50 [3] | IC50 [4] | IC50 [5] | IC50 [6] | IC50 [7] | IC50 ([7]; read-out: IC50) | Ki ([1]; cho-k1) | Ki [3] | Ki [4] | Ki [5] | Ki [6] | Ki [7] | IC50 ([1]; read-out: IC50) | Ki ([1]; read-out: Ki)
C[C@]12C=CC(=O)C=C1CC[C@@H]1[C@@H]2[C@@H](O)C[C@@]2(C)[C@H]1CC[C@]2(O)C(=O)CO [PREDNISOLONE] | Not Active | Not Active | Not Active | Not Active | Not Active | Not Active | Not Active | Not Active | – | – | – | – | – | – | – | – | –
O=C1O[C@H]([C@@H](O)CO)C(O)=C1O [ASCORBIC ACID] | Not Active | Not Active | Not Active | Not Active | Not Active | Not Active | Not Active | Not Active | – | – | – | – | – | – | – | – | –
COc1ccc(C2C(=O)c3ccccc3C2=O)cc1 [ANISINDIONE] | Not Active | Not Active | Not Active | Not Active | Not Active | Not Active | Not Active | Not Active | – | – | – | – | – | – | – | – | –
Brc1c(NC2=NCCN2)ccc2nccnc12 [BRIMONIDINE] | Not Active | Not Active | Not Active | Not Active | Not Active | Not Active | Not Active | Not Active | – | – | – | – | – | – | – | – | –
COc1ccc(C(=O)N2CCCC2=O)cc1 | Not Active | Not Active | Not Active | Not Active | Not Active | Not Active | Not Active | Not Active | – | – | – | – | – | – | – | – | –
C[C@@H]1C[C@H]2[C@@H]3CCC4=CC(=O)C=C[C@]4(C)[C@@]3(F)[C@@H](O)C[C@]2(C)[C@@]1(O)C(=O)CO [DEXAMETHASONE] | Not Active | Not Active | Not Active | Not Active | Not Active | Not Active | Not Active | Not Active | – | – | – | – | – | – | – | – | –
O=C(c1ccccc1C(F)(F)F)N1CCC(Cc2ccccc2)CC1 | Not Active | Not Active | Not Active | Not Active | Not Active | Not Active | Not Active | – | 715 nM | – | – | – | – | – | – | – | –
CCC1(C)CC(=O)NC1=O (stereo not given) [ETHOSUXIMIDE] | Not Active | Not Active | Not Active | Not Active | Not Active | Not Active | Not Active | Not Active | – | – | – | – | – | – | – | – | –
GRAMICIDIN | Not Active | Not Active | Not Active | Not Active | Not Active | Not Active | Not Active | Not Active | – | Not Active | Not Active | Not Active | Not Active | Not Active | Not Active | – | –
OC(CCCN1CCCCC1)(c1ccccc1)c1ccccc1 [DIPHENIDOL] | Not Active | Not Active | Not Active | Not Active | Not Active | Not Active | Not Active | Not Active | – | – | – | – | – | – | – | – | –
CCC(=O)O[C@]1(C(=O)CCl)[C@@H](C)C[C@H]2[C@@H]3CCC4=CC(=O)C=C[C@]4(C)[C@@]3(F)[C@@H](O)C[C@@]21C [CLOBETASOL PROPIONATE] | Not Active | Not Active | Not Active | Not Active | Not Active | Not Active | Not Active | Not Active | – | – | – | – | – | – | – | – | –
Cc1c(OCC(F)(F)F)ccnc1C[S+]([O-])c1nc2ccccc2[nH]1 (stereo not given) [LANSOPRAZOLE] | Not Active | Not Active | Not Active | Not Active | Not Active | Not Active | Not Active | Not Active | – | – | – | – | – | – | – | – | –
CCCOc1ccc(C(=O)OCCN(CC)CC)cc1N [PROPARACAINE] | Not Active | Not Active | Not Active | Not Active | Not Active | Not Active | Not Active | Not Active | – | – | – | – | – | – | – | – | –
CC(=O)[C@H]1[C@H](C#N)C[C@H]2[C@@H]3CC=C4C[C@@H](O)CC[C@]4(C)[C@H]3CC[C@@]21C [PREGNENOLONE CARBONITRILE] | Not Active | Not Active | Not Active | Not Active | Not Active | Not Active | Not Active | Not Active | – | – | – | – | – | – | – | – | –
CN(C)CC[C@@H](c1ccc(Cl)cc1)c1ccccn1 [DEXCHLORPHENIRAMINE] | – | Not Active | Not Active | Not Active | Not Active | Not Active | Not Active | Not Active | – | – | – | – | – | – | – | 2320 nM | 1220 nM
CC[C@H](C)[C@H]1O[C@]2(C=C[C@@H]1C)C[C@@H]1C[C@@H](C/C=C(\C)[C@@H](O[C@H]3C[C@H](OC)[C@@H](O[C@H]4C[C@H](OC)[C@@H](O)[C@H](C)O4)[C@H](C)O3)[C@@H](C)/C=C/C=C3\CO[C@@H]4[C@H](O)C(C)=C[C@@H](C(=O)O1)[C@]34O)O2.CO[C@H]1C[C@H](O[C@H]2[C@H](C)O[C@@H](O[C@@H]3/C(C)=C/C[C@@H]4C[C@@H](C[C@]5(C=C[C@H](C)[C@@H](C(C)C)O5)O4)OC(=O)[C@@H]4C=C(C)[C@@H](O)[C@H]5OC/C(=C\C=C\[C@@H]3C)[C@]54O)C[C@@H]2OC)O[C@@H](C)[C@@H]1O [ABAMECTIN] | Not Active | Not Active | Not Active | Not Active | Not Active | Not Active | Not Active | Not Active | – | – | – | – | – | – | – | – | –
